Measured values: the METLIN SMRT retention time set (Domingo-Almenara et al. 2019)

Assay: gradient 5% acetonitrile 3 min, to 50% in 2 min, to 85% in 15 min, held 3 min, 100 µL/min
Conditions: column: Zorbax Extend-C18 2.1 x 50 mm; eluents: water / acetonitrile, 0.1% formic acid
In short: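 Data were gathered over 3 months by HPLC coupled to a quadrupole time-of-flight mass spectrometer, operated in positive and negative ionization mode. Mixtures of ~100 pure standards ran on a Zorbax Extend-C18 column (2.1 × 50 mm, 1.8 μm) at 100 μL/min, with water and acetonitrile each containing 0.1% formic acid and dead and dwell volumes of 40 μL and 900 μL. Retention time was read from adduct peaks picked by computer and checked manually.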

| SMILES | RP-LC retention time |
| --- | --- |
| Cc1ncsc1CN1CCC(c2nc(-c3ccc(F)cc3)n[nH]2)CC1 | 918 s |
| COc1ccc(-c2nc(Cc3noc(-c4ccccc4F)n3)c(C)o2)cc1 | 1080 s |
| COc1ccc(CNC(=O)Nc2ccc(CC(=O)NCC(F)(F)F)cc2)cc1 | 706 s |
| CCc1ccc2nc(C)cc(C(=O)NC)c2c1 | 568 s |
| O=C(Nc1ccc(C2=NCCCN2)cc1)Nc1ccc(C2=NCCCN2)cc1 | 581 s |
| Cc1c(C(=O)NCC2CCCO2)cnn1-c1cc(-c2nc(C3CC3)no2)ccn1 (stereo not drawn) | 837 s |
| O=C(Nc1cnc(-c2cccnc2)nc1)C1CCC1 | 659 s |
| O=S(=O)(Nc1ccc(F)cc1)c1cccn2cnnc12 | 659 s |
| CCOC(=O)c1noc2ncnc(Nc3cc(C)ccc3C)c12 | 1030 s |
| CC1CCN(C(=O)C2CCN(c3cncnc3N(C)C)CC2)CC1 | 624 s |
| CCOc1cccc(-c2noc(Cn3ccn4nc(-c5cccc(OC)c5)cc4c3=O)n2)c1 | 770 s |
| COc1cc(NC(=O)Cn2c(=O)n(-c3ccc(C)cc3)c(=O)c3c2cc(C)n3C)cc(OC)c1 | 866 s |
| Cc1ccc(-c2nc3cnccn3c2Nc2ccc(C(C)C)cc2)cc1 | 1140 s |
| O=C(C1CCN(S(=O)(=O)c2ccc(-c3noc(CCC4CCCC4)n3)cc2)CC1)N1CCCC1 | 1190 s |
| COc1ccc(N2CCN(c3cc(SCC(=O)Nc4ccc5c(c4)OCO5)ncn3)CC2)cc1 | 900 s |
| CCCN(C)C(=O)C1CCCCc2nnc(C(C)C)n21 (stereo not drawn) | 622 s |
| Cc1cnn(CC(=O)N2CCCCCCNC(=O)[C@@H]3CCCC[C@@H]32)c1 | 716 s |
| Cc1nc(C)c(C(=O)Nc2ccc(F)cc2F)s1 | 755 s |
| Cc1cc(C)c(S(=O)(=O)N2CCC(n3cnc4c(C)cccc4c3=O)CC2)c(C)c1 | 1120 s |
| Cc1ccc(Cc2nc(-c3ccc4c(c3)nnn4CCN3CCOCC3)no2)cc1 | 703 s |
| COc1ccc(-n2ccn3cc(-c4ccc(OC)c(OC)c4)nc3c2=O)cc1 | 723 s |

| SMILES | RP-LC retention time |
| --- | --- |
| COC(=O)c1cc(OCC(=O)Nc2ccc3c(c2)OCCO3)c2cc(Cl)ccc2n1 | 851 s |
| CC1CC(=O)NN=C1c1ccc(N)c([N+](=O)[O-])c1 (stereo not drawn) | 612 s |
| CCn1cc(C)c(C(=O)O)c1CC(=O)N1CCCCC1 | 694 s |
| COc1ccc(Cl)cc1C(=O)N1CCN(c2ccc(-c3nc(C)c(C)s3)cn2)CC1 | 956 s |
| O=C(CN1C(=O)CCC1=O)NC1CCCC(OC(=O)Nc2ccc(F)cc2)C1 (stereo not drawn) | 674 s |
| COc1cc(OC)cc(-c2nnc(Cc3nc(-c4ccc(F)cc4)no3)o2)c1 | 1040 s |
| Cc1ccc(S(=O)(=O)Cc2ccc(-c3nc(-c4cccc(-c5ccnn5C)c4)no3)cc2)cc1 | 1140 s |
| Cc1nc(C)c(CCNC(=O)c2ccc(C)c([N+](=O)[O-])c2)s1 | 614 s |
| COc1ccc(C2CC(=O)N(c3ccc(F)c(Cl)c3)C(=O)C2)cc1 | 980 s |
| Cc1sc(-c2noc(C3CC3)n2)cc1S(=O)(=O)N1CCC(C(=O)NC2CCC(C)CC2)CC1 (stereo not drawn) | 1120 s |
| Cc1cccc(C2CCCN2C(=O)c2c(Br)cnn2C)c1 (stereo not drawn) | 908 s |
| Cc1oc2c(c1C(=O)NCc1ccc(F)c(F)c1)C1=NC(C)(C)CN1C=N2 | 666 s |
| Cn1c(CN2CCN(C(=O)c3ccc(C#N)cc3)CC2)nc2cc(C(=O)N3CCCC3)ccc21 | 604 s |
| CNC(=O)[C@@H]1CN(C(=O)CCc2cc(OC)no2)C[C@H]1c1nc(C)no1 | 620 s |
| CCOc1ccc(-n2c(=O)c3sccc3n(Cc3nc(-c4ccc(Cl)c(F)c4)no3)c2=O)cc1 | 1140 s |
| Cc1sc(NC(=O)C2CCN(S(=O)(=O)c3cccs3)CC2)c(C(N)=O)c1C | 769 s |
| CCC(=O)N(CC)c1nc(-c2ccc(Br)cc2)cs1 | 1250 s |
| Cc1c(Cl)ccc2c(=O)c3c([nH]c12)CCN(CC(=O)Nc1ccc(Cl)c(F)c1)C3 | 646 s |
| COc1ccc(NC(=O)N2[C@H]3CC[C@@H]2c2cncnc2C3)c(OC)c1 | 639 s |
| O=C(CC1CCOC2(CCN(Cc3cccs3)CC2)C1)NC1CC1 (stereo not drawn) | 578 s |

Further lines, results first:

| RP-LC retention time | SMILES |
| --- | --- |
| 1030 s | Cc1ccc(-c2noc(C3CCCN3C(=O)c3ccccc3F)n2)cc1 (stereo not drawn) |
| 943 s | O=C(Nc1ccc(Br)cc1F)C1CCCN(C(=O)c2ccccc2F)C1 (stereo not drawn) |
| 810 s | CCOC(=O)C1CCN(S(=O)(=O)c2cccc3nsnc23)CC1 |
| 811 s | Cc1ccc(C(=O)N2C[C@@H]3C[C@H](NC(=O)c4ccccc4)[C@H]2C3)cc1F |
| 815 s | O=C(Cc1csc2nc(-c3ccccc3)cn12)NCc1ccc(Br)cc1 |
| 667 s | COc1ccc(NC(=O)Cn2cc(C(=O)N3CCCC3)c(=O)c3ccc(C)nc32)cc1 |
| 622 s | CC(=O)N1CCc2cc(CNC(=O)c3ccnn3C)ccc21 |
| 826 s | O=C(c1cn2nc(Cl)ccc2n1)N1CCN(c2ccc(F)cc2)CC1 |
| 824 s | CCn1c(=O)c(N2CCC(NC(=O)NCCc3ccccc3)CC2)nc2cccnc21 |
| 922 s | CCOc1ccc(NS(=O)(=O)c2cc(C(=O)N3CCN(c4ccccc4F)CC3)n[nH]2)cc1 |
| 777 s | COc1cc2c(cc1OC)CN(CCc1ccc(NC(=O)c3cc(OC)c(OC)cc3NC(=O)c3cnc4ccccc4c3)cc1)CC2 |
| 793 s | O=C(c1cc2ccccc2oc1=O)N1CCCC(c2nnc(-c3ccccc3)o2)C1 (stereo not drawn) |
| 965 s | O=C(CN1C(=O)C(O)(c2cccc(F)c2)c2ccccc21)NCCC1=CCCCC1 (stereo not drawn) |
| 843 s | O=C(NOCCc1ccccc1)Nc1ccc([N+](=O)[O-])cc1 |
| 925 s | COCCN1C(=O)c2ccccc2C(C(=O)NCc2ccc(Cl)cc2)C12CCCC2 (stereo not drawn) |
| 967 s | CCCn1c(=O)sc2cc(S(=O)(=O)N3CCC(C(=O)NC4CCCCC4)CC3)ccc21 |
| 752 s | CN(C)C(=O)c1csc(S(=O)(=O)N2CCC(C(=O)Nc3ccccc3)CC2)c1 |
| 601 s | COc1ccccc1C(=O)N1CCN(c2cnn3c(C)nnc3c2)CC1 |
| 680 s | COc1ccc(OC)c(CNC(=O)C2CCN(c3ccc4nncn4n3)CC2)c1 |
| 717 s | NC(=O)C1CCN(C(c2cccc(Cl)c2)c2sc3nc(-c4ccco4)nn3c2O)CC1 (stereo not drawn) |
| 618 s | CCN(CCCNS(=O)(=O)c1ccc2c(c1)CCCC(=O)N2)c1ccccc1 |
| 718 s | CS(=O)(=O)Nc1cccc(NC(=O)c2ccc(=O)n(Cc3ccccc3)n2)c1 |
| 867 s | O=C(CSc1nc2ccccc2s1)N1CCN(C(=O)C2CC2c2ccccc2)CC1 (stereo not drawn) |
| 776 s | O=C(CCNc1c(-c2cccc(F)c2)nc2cnccn12)NCc1ccc(F)cc1F |

| RP-LC retention time | SMILES |
| --- | --- |
| 678 s | O=C(c1sc2ccccc2c1Cl)N1CCN(c2ccccn2)CC1 |
| 769 s | O=C(CC(=O)c1ccccc1)Nc1ccc2c(c1)OCCO2 |
| 1190 s | O=C(Nc1cccc(Cl)c1)N1CCN(c2ncc(C(F)(F)F)cc2Cl)CC1 |
| 663 s | N#Cc1c(NC(=O)C2Cc3ccccc3C(=O)O2)sc2c1CCCC2 (stereo not drawn) |
| 811 s | CCN1CCN(c2ccc(NC(=O)c3ccc(F)c(Cl)c3)cn2)C1=O |
| 777 s | O=C(NC1CCN(c2cc(-c3ccc(F)cc3)[nH]n2)C1)c1ccc(Cl)cc1 (stereo not drawn) |
| 829 s | COc1ccccc1NC(=O)C1CC(=O)N(CCc2c[nH]c3ccc(Cl)cc23)C1 (stereo not drawn) |
| 750 s | c1ccc(-c2noc(-c3ccccc3OC3CCN(Cc4nccs4)C3)n2)cc1 (stereo not drawn) |
| 899 s | COc1ccc(NC(=O)CN2C(=O)CC(c3cccs3)=Nc3ccccc32)cc1 |
| 970 s | CC1(C(=O)NCc2ccccc2)CCN(S(=O)(=O)c2ccccc2C(F)(F)F)CC1 |
| 743 s | Cc1c(C(=O)NCC(C)C)c(C)n2cnn(CC(=O)NCCc3ccccc3)c(=O)c12 |
| 689 s | O=C(NC1CC1)c1ncoc1-c1ccccc1C(=O)N1CCCCC1 |
| 586 s | CC(C)N1C[C@H](O)C[C@H]1c1nnc2n1CCN(C(=O)c1ccc3ccccc3n1)C2 |
| 865 s | COc1ccc(N2CC(c3nc(-c4ccccc4F)no3)CC2=O)cc1 (stereo not drawn) |
| 768 s | Cc1cccc(CNC(=O)C2CC(=O)N(c3ccc4c(c3)CCN4C(=O)C3CC3)C2)c1 (stereo not drawn) |
| 609 s | COCCn1ccc2nc(C)c(C(=O)N3CCN(c4ncccn4)CC3)cc2c1=O |
| 728 s | O=C(Nc1cn(-c2ccc(C(=O)N3CCN(c4ccccc4)CC3)cc2)cn1)C1CC1 |
| 576 s | CCn1c(N2CCN(C(=O)Nc3cccc(C(C)=O)c3)CC2)nc2ccccc21 |
| 822 s | CCCNC(=O)c1ccc(-c2ccc3c(c2)CCN3C(=O)CC)cc1 |
| 611 s | Cc1nc(COc2ccccc2)sc1C(=O)NCCN(C)C |
| 840 s | O=C(Cn1c(=O)c(S(=O)(=O)c2ccccc2)cc2ccccc21)NC1CCCC1 |
| 802 s | COc1cccc(-c2nc(Cn3cnc4ccccc4c3=O)no2)c1OC |
| 676 s | CC(=O)c1cccc(NC(=O)CC2COc3ccccc3NC2=O)c1 (stereo not drawn) |
